Our source for the Activity and LD50 values is ChEMBL document CHEMBL1154088, “Synthesis, biological evaluation and docking studies of novel benzopyranone congeners for their expected activity as anti-inflammatory, analgesic and antipyretic agents” (Bioorg Med Chem, 2009).

Structures are written as SMILES.

The test system of data set [1] is Rattus norvegicus. Nature of the data set: Antipyretic activity against yeast-induced hyperpyrexia in hyperthermic rat assessed as rectal temperature at one-tenth of LD50 administered subcutaneously 18 hrs after yeast challenge measured after 3 hrs (Rvb=39.20 +/- 0.24 degC). In kind it is functional.
The subject of data set [2] is Rattus norvegicus. Nature of the data set: Antipyretic activity against yeast-induced hyperpyrexia in hyperthermic rat assessed as rectal temperature at one-tenth of LD50 administered subcutaneously 18 hrs after yeast challenge measured after 2 hrs (Rvb=39.11 +/- 0.26 degC). In kind it is functional.
Data set [3] concerns Mus musculus. Nature of the data set: Analgesic activity in mouse assessed as protection against acetic acid-induced writhing at one-tenth of LD50 administered subcutaneously 30 mins before acetic acid challenge measured after 4 hrs relative to control. The class given is functional. A general note: In writhing tests, fewer writhes than in controls are read as antinociception.

Data set [4] has as its system Mus musculus. Nature of the data set: Analgesic activity in mouse assessed as protection against acetic acid-induced writhing at one-tenth of LD50 administered subcutaneously 30 mins before acetic acid challenge measured after 1 hr relative to control. The class given is functional.
Data set [5] concerns Rattus norvegicus. Nature of the data set: Antipyretic activity against yeast-induced hyperpyrexia in hyperthermic rat assessed as rectal temperature at one-tenth of LD50 administered subcutaneously 18 hrs after yeast challenge measured after 1 hr (Rvb=39.24 +/- 0.22 degC). In kind it is functional.
Data set [6] concerns Mus musculus. Nature of the data set: Analgesic activity in mouse assessed as protection against acetic acid-induced writhing at one-tenth of LD50 administered subcutaneously 30 mins before acetic acid challenge measured after 2 hrs relative to control. The class given is functional.
Data set [7] deals with Rattus norvegicus. Nature of the data set: Antiinflammatory activity against carrageenan-induced foot paw edema in rat assessed as reduction in paw size at one-tenth of LD50 administered subcutaneously 30 mins before carrageenan challenge measured after 3 hrs relative to control. The class given is functional. Set-up: scale not given: the % may be the effect or the level left. On the technique in general: The carrageenan paw model is a standard test of acute inflammation.

Data set [8] deals with Mus musculus. Nature of the data set: Analgesic activity in mouse assessed as protection against acetic acid-induced writhing at one-tenth of LD50 administered subcutaneously 30 mins before acetic acid challenge measured after 3 hrs relative to control. The class given is functional.
Data set [9] in a line: Toxicity in sc dosed albino mouse up to 24 hrs. The class given is organism-based. The following applies: in vivo.
Data set [10] relates to Rattus norvegicus. Nature of the data set: Antipyretic activity against yeast-induced hyperpyrexia in hyperthermic rat assessed as rectal temperature at one-tenth of LD50 administered subcutaneously 18 hrs after yeast challenge measured after 4 hrs (Rvb=39.17 +/- 0.20 degC). In kind it is functional.
For data set [11], the system named is Rattus norvegicus. Nature of the data set: Antipyretic activity against yeast-induced hyperpyrexia in hyperthermic rat assessed as rectal temperature at 100 mg/kg, sc administered 18 hrs after yeast challenge measured after 1 hr (Rvb=39.24 +/- 0.22 degC). The class given is functional. The following applies: route subcutaneous.
For data set [12], the system named is Rattus norvegicus. Nature of the data set: Antipyretic activity against yeast-induced hyperpyrexia in hyperthermic rat assessed as rectal temperature at 100 mg/kg, sc administered 18 hrs after yeast challenge measured after 4 hrs (Rvb=39.17 +/- 0.20 degC). In kind it is functional. The following applies: route subcutaneous.
For data set [13], the system named is Rattus norvegicus. Nature of the data set: Antipyretic activity against yeast-induced hyperpyrexia in hyperthermic rat assessed as rectal temperature at 100 mg/kg, sc administered 18 hrs after yeast challenge measured after 2 hrs (Rvb=39.11 +/- 0.26 degC). The following applies: route subcutaneous. The class given is functional.
Data set [14] concerns Rattus norvegicus. Nature of the data set: Antipyretic activity against yeast-induced hyperpyrexia in hyperthermic rat assessed as rectal temperature at 100 mg/kg, sc administered 18 hrs after yeast challenge measured after 3 hrs (Rvb=39.20 +/- 0.24 degC). The class given is functional. The following applies: route subcutaneous.
Data set [15] deals with Rattus norvegicus. Nature of the data set: Antiinflammatory activity against carrageenan-induced foot paw edema in rat assessed as reduction in paw size at 20 mg/kg, sc administered 30 mins before carrageenan challenge measured after 3 hrs relative to control. In kind it is functional. Further details: scale not given: the % may be the effect or the level left. The settings on record: route subcutaneous.

Data set [16] has as its system Mus musculus. Nature of the data set: Analgesic activity in mouse assessed as protection against acetic acid-induced writhing at 5 mg/kg, sc administered 30 mins before acetic acid challenge measured after 1 hr relative to control. The settings on record: route subcutaneous. The class given is functional.
The subject of data set [17] is Mus musculus. Nature of the data set: Analgesic activity in mouse assessed as protection against acetic acid-induced writhing at 5 mg/kg, sc administered 30 mins before acetic acid challenge measured after 4 hrs relative to control. The following applies: route subcutaneous. The class given is functional.
Data set [18] concerns Mus musculus. Nature of the data set: Analgesic activity in mouse assessed as protection against acetic acid-induced writhing at 5 mg/kg, sc administered 30 mins before acetic acid challenge measured after 3 hrs relative to control. The class given is functional. The settings on record: route subcutaneous.
Data set [19] has as its system Mus musculus. Nature of the data set: Analgesic activity in mouse assessed as protection against acetic acid-induced writhing at 5 mg/kg, sc administered 30 mins before acetic acid challenge measured after 2 hrs relative to control. The class given is functional. The settings on record: route subcutaneous.

Broadly, the LD50 is the dose at which mortality reaches 50%.

As for `N#Cc1c(-c2ccccc2O)cc(-c2c(O)ccc3c(-c4ccccc4)cc(=O)oc23)[nH]c1=O`, the Activity was found to be 38.47 °C with Rattus norvegicus [1]; 38.2 °C in the data set on Rattus norvegicus [2]; 6.38% in the data set with Mus musculus [3]; 41.84% with Mus musculus [4]; 38.34 °C in the data set with Rattus norvegicus [5]; 30.49% with Mus musculus [6]. In addition, the figures for the Activity with Rattus norvegicus [7], in the data set with Mus musculus [8] and in the data set with Rattus norvegicus [10] were 4.33%, 19.14% and 38.91 °C, respectively. Further, the LD50 at 24 h in data set [9] stood at 290 mg/kg.
With `N#Cc1c(-c2cccnc2)cc(-c2c(O)ccc3c(-c4ccccc4)cc(=O)oc23)[nH]c1=N`, the Activity was 38.91 °C in the data set on Rattus norvegicus [1]; 38.94 °C with Rattus norvegicus [2]; 5.15% in the data set on Mus musculus [3]; 7.49% with Mus musculus [4]; 39.11 °C with Rattus norvegicus [5]; 7.02% in the data set on Mus musculus [6]. Besides, the Activity with Rattus norvegicus [7] stood at 16.21%; in the data set with Mus musculus [8], 5.15%; in the data set with Rattus norvegicus [10], 38.91 °C. Further, the median lethal dose (LD50) at 24 h in data set [9] stood at 370 mg/kg.
In the case of `CN(C)c1ccc(-c2cc(-c3c(O)ccc4c(-c5ccccc5)cc(=O)oc34)[nH]c(=N)c2C#N)cc1`, the Activity in the data set with Rattus norvegicus [1] is 38.39 °C; in the data set on Rattus norvegicus [2], 38.17 °C; in the data set on Mus musculus [3], 3.76%; in the data set on Mus musculus [4], 9.41%; with Rattus norvegicus [5], 38.38 °C; in the data set on Mus musculus [6], 12%. In addition, the Activity in the data set on Rattus norvegicus [7] was 18.85%; with Mus musculus [8], 11.52%; with Rattus norvegicus [10], 38.89 °C. The same molecule came in with an LD50 at 24 h in data set [9] of 310 mg/kg.
On to `CN(C)c1ccc(-c2cc(-c3c(O)ccc4c(-c5ccccc5)cc(=O)oc34)[nH]c(=O)c2C#N)cc1`, for which the Activity with Rattus norvegicus [1] came out at 38.9 °C; with Rattus norvegicus [2], 38.91 °C; in the data set with Mus musculus [3], 2.35%; in the data set with Mus musculus [4] it was 9.66%; in the data set on Rattus norvegicus [5], 38.91 °C; in the data set on Mus musculus [6], 7.54%. The Activity in the data set with Rattus norvegicus [7] was found to be 7.24%; in the data set with Mus musculus [8], 7.54%; in the data set with Rattus norvegicus [10], 39.11 °C. The LD50 at 24 h in data set [9] amounted to 390 mg/kg.
On to `N#Cc1c(-c2ccccc2O)cc(-c2c(O)ccc3c(-c4ccccc4)cc(=O)oc23)[nH]c1=N`, for which the Activity in the data set with Rattus norvegicus [1] was determined as 38.91 °C; in the data set with Rattus norvegicus [2], 38.91 °C; in the data set with Mus musculus [3], 2.58%; with Mus musculus [4], 9.62%; in the data set with Rattus norvegicus [5], 39.01 °C; in the data set with Mus musculus [6], 9.38%. The Activity was 16.31% with Rattus norvegicus [7], 9.62% in the data set with Mus musculus [8] and 38.94 °C with Rattus norvegicus [10]. In addition, the LD50 at 24 h in [9] was 310 mg/kg.
Turning to `N#Cc1c(-c2ccc(Cl)cc2)cc(-c2c(O)ccc3c(-c4ccccc4)cc(=O)oc23)[nH]c1=O`, the Activity in the data set with Rattus norvegicus [1] was 38.81 °C; in the data set with Rattus norvegicus [2], 38.84 °C; with Mus musculus [3], 1.66%; in the data set on Mus musculus [4], 0%; with Rattus norvegicus [5], 38.91 °C; in the data set on Mus musculus [6], 1.18%. In addition, the figures for the Activity with Rattus norvegicus [7], with Mus musculus [8] and in the data set with Rattus norvegicus [10] were 16.35%, 0.71% and 38.91 °C, respectively. The molecule also registered an LD50 at 24 h in [9] of 310 mg/kg.
As for `COc1cc(OC)c(-c2cc(-c3c(O)ccc4c(-c5ccccc5)cc(=O)oc34)[nH]c(=O)c2C#N)c(OC)c1`, the Activity is 38.81 °C in the data set with Rattus norvegicus [1]; 38.91 °C in the data set on Rattus norvegicus [2]; 1.41% in the data set with Mus musculus [3]; 0.47% with Mus musculus [4]; 38.91 °C in the data set with Rattus norvegicus [5]; 0.7% in the data set on Mus musculus [6]. Besides, the Activity with Rattus norvegicus [7] was 5.78%; in the data set with Mus musculus [8], 0.7%; in the data set on Rattus norvegicus [10] it was 38.91 °C. In addition, in data set [9], the LD50 at 24 h is 390 mg/kg.
Consider `COc1ccc(-c2cc(-c3c(O)ccc4c(-c5ccccc5)cc(=O)oc34)[nH]c(=N)c2C#N)cc1`, for which the Activity with Rattus norvegicus [1] was found to be 38.81 °C; in the data set on Rattus norvegicus [2], 38.81 °C; in the data set on Mus musculus [3], 1.88%; with Mus musculus [4], 4.7%; with Rattus norvegicus [5], 38.9 °C; with Mus musculus [6], 0.7%. The figures for the Activity in the data set on Rattus norvegicus [7], with Mus musculus [8] and in the data set with Rattus norvegicus [10] were 15.94%, 1.17% and 38.91 °C, respectively. Besides, the LD50 at 24 h in data set [9] was determined as 330 mg/kg.
For `N#Cc1c(-c2ccc(Cl)cc2)cc(-c2c(O)ccc3c(-c4ccccc4)cc(=O)oc23)[nH]c1=N`, the Activity was 38.84 °C with Rattus norvegicus [1]; 39 °C with Rattus norvegicus [2]; 3.52% with Mus musculus [3]; 3.28% with Mus musculus [4]; 38.91 °C with Rattus norvegicus [5]; 2.58% in the data set with Mus musculus [6]. The results for the Activity in the data set with Rattus norvegicus [7], with Mus musculus [8] and in the data set on Rattus norvegicus [10] were 4.7%, 5.39% and 38.91 °C, respectively. The molecule also returned an LD50 at 24 h in data set [9] of 390 mg/kg.
As to `N#Cc1c(-c2cccnc2)cc(-c2c(O)ccc3c(-c4ccccc4)cc(=O)oc23)[nH]c1=O`, the Activity is 38.81 °C in the data set with Rattus norvegicus [1]; 38.81 °C in the data set with Rattus norvegicus [2]; 0.95% in the data set on Mus musculus [3]; 8.8% in the data set with Mus musculus [4]; 38.71 °C in the data set on Rattus norvegicus [5]; 8.8% with Mus musculus [6]. Moreover, the results for the Activity with Rattus norvegicus [7], with Mus musculus [8] and with Rattus norvegicus [10] were 7.17%, 3.57% and 38.91 °C, respectively. This molecule yielded an LD50 at 24 h in data set [9] of 370 mg/kg.
Take `CC(=O)Nc1ccc(O)cc1` [ACETAMINOPHEN]: the Activity was 37.38 °C in the data set with Rattus norvegicus [11], 37.16 °C in the data set on Rattus norvegicus [12], 37.2 °C in the data set on Rattus norvegicus [13] and 37.27 °C with Rattus norvegicus [14].
Turning to `Cc1ccc(-c2cc(C(F)(F)F)nn2-c2ccc(S(N)(=O)=O)cc2)cc1` [CELECOXIB], in the data set with Rattus norvegicus [15], the Activity came to 39.67%.
`O=C([O-])Cc1ccccc1Nc1c(Cl)cccc1Cl.[Na+]` [DICLOFENAC SODIUM]: the Activity in the data set with Mus musculus [16] is listed as 74.02%; with Mus musculus [17], 55.82%; in the data set on Mus musculus [18] it was 68.44%; in the data set on Mus musculus [19] it was 75.24%.
